Measurements from patent publication US20220079903A1, “COMPOSITIONS AND METHODS FOR TREATING AND PREVENTING ADHESIONS AND ILUES” (Leading Biosciences, Inc., priority 2016, published 2022).
Entries after “also recorded” stand apart in the source; their conditions may differ.

Test system: abdominal adhesions in a rat model of surgical adhesions
Assay: rat model of surgical (abdominal) adhesions, small intestine rubbed with latex glove
Type: in vivo, Wistar rats
Protocol: The objective of the current study was to compare the efficacy of enteral saline, enteral Formula A, lavage tranexamic acid (TXA), and enteral Formula A with lavage TXA to prevent abdominal adhesions in a rat model of surgical adhesions.
The tests were conducted on Wistar rats from Harlan/Charles River. The sample size included 40 animals in total, with a target weight of 350-400 g (males). The rat was selected as the test model since it is accepted by regulatory authorities as a rodent animal model for toxicity studies, and high quality animals are readily available and a large amount of background pathology data is available in this species. […] The model reproducibility provides the ability to observe directional proof of concept data within normal experimental conditions.
Four groups were measured; Group 1 served as the control wherein saline (Baxter, 0.9% sodium chloride IV solution bags) was administered via enteral administration; subjects in Group 2 were exposed to an enteral administration of Formula A; subjects in Group 3 were exposed to a lavage of tranexamic acid (TXA) and saline; and subjects in Group 4 were given enteral administration of Formula A and a lavage of tranexamic acid (TXA) and saline.
Prior to the experiment, the animals were fasted and prepared for the adhesion model according to the schedule: (A) Evening Prior to Experiment—Begin Fasting; (B) Day 1: Hour−2.0—Administration of enteral test article (oral gavage); (C) Day 1: Hour 0.0−Induction of anesthesia with ketamine with a dose of 75 mg/kg, I.M; and (D) Day 1: Hour 0+10 min—induction of surgical adhesion model.
A small skin incision in the midline of the abdomen was made for isolation of small intestine. A length of the small intestine was rubbed gently with a latex glove 10 times. Animals were given abdominal lavage test article immediately after the small intestine was rubbed. Laparotomy was sutured and the animal allowed to recover. During surgery, the animals were kept warm (37° C.) at all times by a temperature therapy pad and vital signs (systemic blood pressure or respiratory rate, body temperature) were monitored at all times during experiment. Leg motion and toe reflexes were monitored for anesthetic level. On day 28—The animals were euthanized and the number and size/thickness of adhesions were quantified.

[1] = vs enteral saline Group 1, 2 side T-test

## NC[C@H]1CC[C@H](C(=O)O)CC1 [tranexamic acid (TXA), tranexamic acid]
Wistar rats, day 28, enteral = 4 ml oral gavage 2 hr pre surgery, lavage = 4 ml TXA in saline right after rubbing, saline control 4.10
  mean number of adhesions per animal: 0.67
Day 28, score 0-4: 4 = no adhesions, 3 ≤1 mm, 2 >1 mm ≤2 mm, 1 >2 mm, 0 = kinked intestine, saline control 1.60
  mean severity of adhesions (score): 3.00
[1]
  number of adhesions relative to the control (in words): significantly less adhesions relative to the control; also recorded: significant relative to the control Group 1
  severity of adhesions relative to the control (in words): significantly smaller adhesions in terms of severity relative to the control; also recorded: significant relative to the control Group 1
